Experimental data: ChEMBL document CHEMBL3227984, “5-Substituted uracil arabinonucleosides as potential antiviral agents” (J Med Chem, 1979)

System: Vaccinia virus
Test: Antiviral activity against Vaccinia virus infected in primary rabbit kidney cells assessed as inhibition of virus-induced cytopathogenicity
Format: functional, Orthopoxvirus vaccinia

SMILES	ID50
Cc1cn([C@@H]2O[C@H](CO)[C@@H](O)[C@@H]2O)c(=O)[nH]c1=O	3.9 ×10⁻⁶ M
O=c1[nH]c(=O)n([C@@H]2O[C@H](CO)[C@@H](O)[C@@H]2O)cc1[N+](=O)[O-]	>6.9 ×10⁻⁴ M
N#Cc1cn([C@@H]2O[C@H](CO)[C@@H](O)[C@@H]2O)c(=O)[nH]c1=O	>3.7 ×10⁻⁴ M
O=c1[nH]c(=O)n([C@@H]2O[C@H](CO)[C@@H](O)[C@@H]2O)cc1O	>7.7 ×10⁻⁴ M
O=c1ccn([C@@H]2O[C@H](CO)[C@@H](O)[C@@H]2O)c(=O)[nH]1 [ARAURIDINE]	8.2 ×10⁻⁴ M
